Patent US6777405B2, “Detection and treatment of duplex polynucleotide damage” (California Institute of Technology, priority 1997, dated 2004)

Experiments:
[1] = tested on: DNA duplexes having a single base pair mismatch (SEQ ID NO:1/SEQ ID NO:2); assay: Photocleavage of 17-mer DNA duplexes with a single base pair mismatch (365 nm, PAGE); assay type: biochemical
Protocol: A set of DNA duplexes was prepared having the following sequence:
3′-[…]-5′(SEQ ID NO:1)
5′-[…]-3′(SEQ ID NO:2),
where X and Y were varied to provide A-T, G-C, and the following mismatches: C-C, C-A, T-T, A-A, T-C, T-G, G-A, and G-G. All oligonucleotides were prepared using standard phosphoramidite chemistry, and were purified by reverse phase HPLC. The oligonucleotides were 5′ end-labeled with γ-^32P ATP (Dupont-NEN) and T4 polynucleotide kinase (New England Biolabs).
Duplexes (10 μM) were incubated with Δ or Λ [Rh(bpy)2(chrysi)]^3+(1 μM in 50 mM Tris, 20 mM NaOAc, 18 mM NaCl, pH 7.0) for 11 minutes, then irradiated for 13 min at 365 nm using an Oriel HgXe arc lamp. The products were analyzed by PAGE (20%, denaturing), imaged using a Molecular Dynamics Phosphorimager. The lanes labeled A+G and C+T are standard Maxam-Gilbert sequencing reactions: the remaining columns show cleavage (or lack of cleavage) for each tested mismatch with each enantiomer. […] Here, cleavage occurred to the 3′ side of the mismatch site. […] Unlike the other recognized mismatches, the cleavage 3′ to C-A results in two products having different gel mobility, possibly the result of chemically different polymer termini. The cleavage of A-A was also distinctive.

[2] = tested on: hairpin DNA oligonucleotide (SEQ ID NO:3) having a single C-C mismatch; assay: Photocleavage titration on hairpin DNA with single C-C mismatch; details: 313 or 365 nm, Rh complex at 0.10× DNA concentration, single binding site model fit
Protocol: A hairpin DNA oligonucleotide was synthesized with the sequence:
5′-[…]-3′ (SEQ ID NO:3), having a single C-C mismatch. The hairpin was photocleaved as described in Example 2 above with Δ[Rh(bpy)2(chrysi)]^3+ at either 313 nm or 365 nm for 7.5 to 15 min. Hairpin DNA concentration was varied from 3×10^−10 M to 1×10^−4 M, with the Rh complex used at 0.10× the DNA concentration. The cleavage products were eluted through 20% denaturing polyacrylamide gels, and analyzed using a Molecular Dynamics Phosphorimager and ImageQuant software. Cleavage was observed 3′ to the C-C mismatch on both sides of the hairpin: only the cleavage band closest to the end label was quantitated. Data from multiple trials was normalized (open circles) and fit to a standard single binding site binding model (solid line).
(§1) The thermodynamic binding constant was determined to be 8.4 (±1.0)×10^5 M^−1. Similar DNA photocleavage titrations at other mismatch sites have measured the affinity of Δ [Rh(bpy)2(chrysi)]^3+ between 1×10^7 and 3×10^5 M^−1. To examine the level of selectivity the average binding constant of Δ[Rh(bpy)2(chrysi)]^3+ to B-form DNA was also determined. Photocleavage on a 33mer correctly matched hairpin and competitive titration with unlabeled 25mer B-DNA yielded a value of 4 (±2)×10^4 M^−1 for the average non-specific binding affinity.

[3] = tested on: mismatch-sequence context combinations in DNA duplexes; assay: Photocleavage with systematically changed bases 5′ and 3′ of the mismatch site; assay type: biochemical; details: flanking bases 5′ and 3′ of the mismatch systematically changed
[4] = tested on: B-form DNA (33mer correctly matched hairpin, 25mer B-DNA); assay: Photocleavage on correctly matched hairpin and competitive titration with unlabeled B-DNA; assay type: binding
Protocol: as §1

[5] = duplex 10 μM, complex 1 μM, 13 min at 365 nm
[6] = duplex 10 μM, complex 1 μM, 13 min at 365 nm, compared with C-C

| Substance | mismatch pairs cleaved among all tested pairs ([1]; A-T, G-C, C-C, C-A, T-T, A-A, T-C, T-G, G-A, G-G tested) | photocleavage at A-A mismatch relative to the other enantiomer [1, 5] | thermodynamic binding constant [2] | mismatch-sequence context combinations at which photocleavage was observed (count) [3] | mismatch-sequence context combinations at which photocleavage was observed (percent) [3] [%] | average non-specific binding affinity [4] | photocleavage at A-A mismatch, base 3′ to the site [1, 5] | photocleavage at the A-A site itself [1, 5] | photocleavage at C-A mismatch ([1]; duplex 10 μM, complex 1 μM, 13 min at 365 nm, at the mismatched C and the base 3′ to the mismatch site) | photocleavage at T-C mismatch [1, 6] | photocleavage at T-T mismatch [1, 6] | photocleavage at C-C mismatch ([1]; duplex 10 μM, complex 1 μM, pH 7.0, irradiated 13 min at 365 nm, cleavage to the 3′ side of the mismatch site) |
| --- | --- | --- | --- | --- | --- | --- | --- | --- | --- | --- | --- | --- |
| Λ-[Rh(bpy)2(chrysi)]Cl3 [Λ enantiomer] | The A-A mismatch is the only pair cleaved | weaker cleavage | – | – | – | – | – | – | – | – | – | – |
| Δ-[Rh(bpy)2(chrysi)]Cl3 [Δ[Rh(bpy)2(chrysi)]^3+] | – | – | 8.4 (±1.0)×10^5 M^−1 | 83 of 104 | 80 | 4 (±2)×10^4 M^−1 | strong cleavage | a small amount of cleavage | Strong cutting | less intense cleavage | less intense cleavage | strongest cleavage intensity |
